Data from patent US7956069B2, “Compounds” (AstraZeneca AB, priority 2006, dated 2011).

Key:
Assay type in all cases: cell-based
[1] = molecular target: T1, hM1 (human Muscarinic receptor subtype 1) (Homo sapiens, UniProt P11229); experiment: Human M1 calcium mobilization FLIPR assay; details: CHO cells expressing hM1, Ca2+ release
T1 construct: expressed in transfected cells; host or cells: CHO cells (Chinese hamster ovary cells, ATCC)
T1 sequence (P11229 1-460): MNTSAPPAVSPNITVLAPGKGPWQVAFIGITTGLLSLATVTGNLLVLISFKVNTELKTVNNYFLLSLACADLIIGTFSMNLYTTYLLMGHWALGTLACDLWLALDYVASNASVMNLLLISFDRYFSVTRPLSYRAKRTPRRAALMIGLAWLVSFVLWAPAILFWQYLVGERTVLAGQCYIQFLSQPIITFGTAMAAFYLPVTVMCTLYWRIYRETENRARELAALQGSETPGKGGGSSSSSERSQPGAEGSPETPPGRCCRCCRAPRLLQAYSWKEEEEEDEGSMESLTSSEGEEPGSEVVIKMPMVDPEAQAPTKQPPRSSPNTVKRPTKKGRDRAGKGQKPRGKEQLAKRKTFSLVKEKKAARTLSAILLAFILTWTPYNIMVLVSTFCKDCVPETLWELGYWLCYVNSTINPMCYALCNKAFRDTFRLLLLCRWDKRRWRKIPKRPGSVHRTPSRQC
Procedure: (§1) Biological Evaluation Human M1, Rat M1, Human M3 and Human M5 Calcium Mobilization FLIPR™ Assay
(§2) The compound activity in the present invention (EC50 or IC50) was measured using a 384 plate-based imaging assay that monitors drug induced intracellular Ca^2+ release in whole cells. Activation of hM1 (human Muscarinic receptor subtype 1, gene bank access NM_000738), rM1 (rat Muscarinic receptor subtype 1, gene bank access NM_080773), hM3 (human Muscarinic receptor subtype 3, gene bank access NM_000740NM_000740) and hM5 (human Muscarinic receptor subtype 5, gene bank access NM_0121258), receptors expressed in CHO cells (Chinese hamster ovary cells, ATCC) was quantified in a Molecular Devices FLIPR II™ instrument as an increase in fluorescent signal. Inhibition of hM3 and hM5 by compounds was determined by the decrease in fluorescent signal in response to 20 nM carbachol activation.
(§3) CHO cells were plated in 384-black polylysine coated plate (Costar) at 8000 cells/well/50 μl for 24 hours or 4000 cells/well for 48 hours in a humidified incubator (5% CO2 and 37° C.) in DMEM/F12 medium without selection agent. Prior to the experiment the cell culture medium was removed from the plates by inversion. A loading solution of 30 μl of Hank's balanced salt solution, 10 mM Hepes and 2.5 mM Probenicid at Ph 7.4 (Cat no. 311-520-VL, Wisent) with 2 μM calcium indicator dye (FLUO-3AM, Molecular Probes F14202) was added to each well. Plates were incubated at 37° C. for 60 minutes prior to start the experiment. The incubation was terminated by washing the cells four times in assay buffer, leaving a residual 25 μl buffer per well. Cell plates were then transferred to the FLIPR, ready for compound additions.
(§4) The day of experiment, carbachol and compounds were diluted in three-fold concentration range (10 points serial dilution) for addition by FLIPR instrument. For all calcium assays, a baseline reading was taken for 30 seconds followed by the addition of 12.5 μl (25 μl for hM1 and rM1) of compounds, resulting in a total well volume of 37.5 μl (50 μl for hM1 and rM1). Data were collected every 1.6 seconds for 300 seconds. For hM3 and hM5 an additional 12.5 μl of carbachol (20 nM final) was added at 300 seconds. After this addition of carbachol (producing a final volume of 50 μl), the FLIPR continued to collect data every 2 seconds for 240 seconds. The fluorescence emission was read using filter 1 (emission 520-545 nm) by the FLIPR on board CCD camera.
(§5) Calcium mobilization output data were calculated as the maximal relative fluorescence unit (RFU) minus the minal value for both compound and agonist reading frame (except for hM1 and rM1 using only the maximal RFU). Data were analyzed using sigmoidal fits of a non-linear curve-fitting program (XLfit version 5.0.6 from ID Business Solutions Limited, Guildford, UK). All EC50 and IC50 values are reported as arithmetic means±standard error of mean of ‘n’ independent experiments.

[2] = molecular target: T2, hM5 (human Muscarinic receptor subtype 5) (Homo sapiens, UniProt P08912); experiment: Human M5 calcium mobilization FLIPR assay; details: CHO cells expressing hM5, Ca2+ release
T2 construct: expressed in transfected cells; host or cells: CHO cells (Chinese hamster ovary cells, ATCC)
T2 sequence (P08912 1-532): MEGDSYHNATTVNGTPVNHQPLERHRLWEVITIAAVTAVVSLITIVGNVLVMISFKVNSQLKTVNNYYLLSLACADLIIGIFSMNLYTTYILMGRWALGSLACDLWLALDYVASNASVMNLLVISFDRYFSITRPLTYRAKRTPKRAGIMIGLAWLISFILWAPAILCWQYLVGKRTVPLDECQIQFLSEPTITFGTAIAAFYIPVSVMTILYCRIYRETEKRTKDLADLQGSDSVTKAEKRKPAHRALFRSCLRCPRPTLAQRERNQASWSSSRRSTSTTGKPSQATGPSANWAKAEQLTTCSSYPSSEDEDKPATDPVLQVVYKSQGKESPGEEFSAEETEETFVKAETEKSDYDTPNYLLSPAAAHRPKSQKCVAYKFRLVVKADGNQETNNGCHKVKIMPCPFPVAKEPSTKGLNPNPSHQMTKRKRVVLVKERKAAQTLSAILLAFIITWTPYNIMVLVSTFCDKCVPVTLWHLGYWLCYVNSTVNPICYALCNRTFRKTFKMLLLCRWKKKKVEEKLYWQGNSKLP
Procedure: as §1, §2, §3, §4, §5

[3] = molecular target: T3, hM3 (human Muscarinic receptor subtype 3) (Homo sapiens, UniProt P20309); experiment: Human M3 calcium mobilization FLIPR assay; details: CHO cells expressing hM3, Ca2+ release
T3 construct: expressed in transfected cells; host or cells: CHO cells (Chinese hamster ovary cells, ATCC)
Procedure: as §1, §2, §3, §4, §5

T3 sequence (P20309 whole entry): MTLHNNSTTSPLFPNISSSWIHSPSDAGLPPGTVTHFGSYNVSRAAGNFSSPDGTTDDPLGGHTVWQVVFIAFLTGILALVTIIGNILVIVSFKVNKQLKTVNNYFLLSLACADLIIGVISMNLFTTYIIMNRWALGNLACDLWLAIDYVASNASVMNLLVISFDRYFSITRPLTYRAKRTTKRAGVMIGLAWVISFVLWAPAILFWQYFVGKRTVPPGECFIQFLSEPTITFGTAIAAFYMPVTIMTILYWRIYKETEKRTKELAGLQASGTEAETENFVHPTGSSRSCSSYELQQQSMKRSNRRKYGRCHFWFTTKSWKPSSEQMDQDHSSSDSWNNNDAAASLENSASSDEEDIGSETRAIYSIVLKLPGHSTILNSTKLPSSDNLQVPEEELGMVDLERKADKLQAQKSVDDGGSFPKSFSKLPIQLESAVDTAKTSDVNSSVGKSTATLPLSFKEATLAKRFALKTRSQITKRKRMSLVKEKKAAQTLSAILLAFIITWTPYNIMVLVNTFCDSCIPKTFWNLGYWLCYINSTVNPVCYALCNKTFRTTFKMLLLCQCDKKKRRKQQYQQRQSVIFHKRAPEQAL

| EC50 [1] [nM] | EC50 [2] [nM] | EC50 [3] [nM] | SMILES |
| --- | --- | --- | --- |
| 300 |  |  | O=C(C1CCCC1)N1CCC(N2CCC(N3C(=O)N[C@@H]4CCCC[C@@H]43)CC2)CC1 |
| 600 |  |  | O=C(c1ccccc1)N1CCC(N2CCC(N3C(=O)N[C@@H]4CCCC[C@H]43)CC2)CC1 |
| 1200 | > 40000 | > 40000 | CCOC(=O)N1CCC(N2CCC(N3C(=O)N(C(C)C)[C@H]4CCCC[C@@H]43)CC2)CC1 |
| 93 | > 40000 | > 40000 | Cc1ccccc1C(=O)N1CCC(N2CCC(N3C(=O)C[C@H]4CCCC[C@@H]43)CC2)CC1 |
| 81 |  |  | O=C(C1CC1(F)F)N1CCC(N2CCC(N3C(=O)N[C@H]4CCCC[C@@H]43)CC2)CC1 (some centres unmarked) |
| 1000 |  |  | CCNC(=O)N1CCC(N2CCC(N3C(=O)N[C@@H]4CCCC[C@H]43)CC2)C1 (mixture of isomers) |
| 59 |  |  | CCOC(=O)N1CCC(N2CCC(N3C(=O)C[C@H]4CCCC[C@@H]43)CC2)C1 (single isomer, unassigned) |
